Measured values taken from patent publication US7803803B2, “Tetrahydrofuro[3,2-B] pyrrol-3-ones as cathepsin K inhibitors” (Amura Therapeutics Limited, priority 2007, dated 2010).

How the values were obtained:
[1] = LogD determinations; format: physicochemical; conditions: Ion-count method; for logD at 1 h: 1-octanol/phosphate buffered saline, pH 7.4, pH 7.4
Protocol: LogD(PBS) determinations were performed in 96 well microtitre plates using a miniaturised “shake-flask” method. […] The plates were then capped and mixed vigorously for 1 hour on a microtitre plate shaker, after which they were left to stand, allowing the PBS and octanol phases to separate. The PBS layer was analysed by reverse phase HPLC with mass spectrometric detection, using single ion monitoring of the [M+H]^+ species.
Where AUCstd and AUCpbs are the peak areas from the standard and test ion chromatograms respectively.

[2] = molecular target: T1, cathepsin K (Homo sapiens, UniProt P43235); test: In vitro cathepsin Ki inhibition measurements; format: biochemical; set-up: purchased B. Turk, Josef Stefan Institute, Ljubljana, Slovenia; conditions: human recombinant cathepsin K; read-out: In vitro Ki (nM) vs Cath K
T1 sequence (P43235 115-329): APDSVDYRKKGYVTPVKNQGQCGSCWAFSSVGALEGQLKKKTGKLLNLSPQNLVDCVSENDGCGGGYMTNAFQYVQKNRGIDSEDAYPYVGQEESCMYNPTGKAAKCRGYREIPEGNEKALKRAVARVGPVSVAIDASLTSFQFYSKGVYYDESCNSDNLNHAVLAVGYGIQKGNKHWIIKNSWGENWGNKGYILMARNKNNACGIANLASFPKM
Protocol: Stock solutions of substrate or inhibitor were made up to 10 mM in 100% dimethylsulfoxide (DMSO) (Rathburns, Glasgow, U.K.) and diluted as appropriately required. In all cases the DMSO concentration in the assays was maintained at less than 1% (vol./vol.). The equilibrium inhibition constants (Ki^SS) for each compound were measured under steady-state conditions monitoring enzyme activity as a function of inhibitor concentration. The values were calculated on the assumption of pure competitive behaviour (Cornish-Bowden, A. Fundamentals of enzyme kinetics Portland Press; 1995, 93-128). Human recombinant cathepsin K (0.25 nM final; B. Turk, Josef, Stefan Institute, Ljubljana, Slovenia), was routinely assayed in 100 mM sodium acetate; pH 5.5 containing 1 mM EDTA, 10 mM L-cysteine and 1.8 μM Z-Leu-Arg-AMC ([S]═KM).
The apparent inhibition constant (Ki) for each compound was determined on the basis that inhibition was reversible and occurred by a pure-competitive mechanism. The Ki values were calculated, from the dependence of enzyme activity as a function of inhibitor concentration, by direct regression analysis (Prism v 3.02) using Equation 2 (Cornish-Bowden, A., 1995).
In situations where the apparent dissociation constant (Ki^app) approached the enzyme concentrations, the Ki^app values were calculated using a quadratic solution in the form described by Equation 3 (Morrison, J. F. Trends Biochem. Sci., 7, 102-105, 1982; Morrison, J. F. Biochim. Biophys. Acta, 185, 269-286, 1969; Stone, S. R. and Hofsteenge, J. Biochemistry, 25, 4622-4628, 1986).
Curves were fitted by non-linear regression analysis (Prism) using a fixed value for the enzyme concentration. Equation 4 was used to account for the substrate kinetics, where ‘Ki’ is the inhibition constant, ‘[So]’ is the initial substrate concentration and ‘KM^app’ is the apparent macroscopic binding (Michaelis) constant for the substrate (Morrison, 1982).

[3] = system: human osteoclasts; test: Human osteoclast resorption assay; format: cell-based; conditions: Homo sapiens, Osteoclast, 48 h, 1 □ M, read-out: Cell-based % Inh. @ 1 □ M Human
Protocol: Bone resorption was studied using a model where human osteoclast precursor cells were cultured on bovine bone slices for 9 days and allowed to differentiate into bone-resorbing osteoclasts. The formed mature osteoclasts were then allowed to resorb bone. The assay was performed by Pharmatest Services Ltd, Itäinen Pitkakatu 4C, Turku, Finland. After the culture period, bone collagen degradation products were quantified from the culture medium as an index of bone resorption. Inhibitor compounds were added into the cell cultures after the differentiation period and their effects on the resorbing activity of mature osteoclasts were determined. The studies included a baseline group without added compounds and a positive control group where a potent cathepsin K inhibitor E-64 was added.
Human peripheral blood monocytes were suspended to culture medium and allowed to attach to bovine bone slices. The bone slices were transferred into 96-well tissue culture plates containing culture medium with appropriate amounts of important growth factors favouring osteoclast differentiation, including M-CSF, RANK-ligand and TGF-[…]. The cells were incubated in a CO2 incubator in humidified atmosphere of 95% air and 5% carbon dioxide at 37° C. At day 7 when osteoclast differentiation was complete, the culture medium was replaced with culture medium containing conditions favouring osteoclast activity. The cell culture was continued for an additional 2 days, during which the formed mature osteoclasts were allowed to resorb bone in the presence of vehicle, control inhibitor (E64) or test compounds. At the end of the culture, bone collagen degradation products released into the culture medium were determined using a commercially available ELISA method (CrossLaps® for culture, Nordic Bioscience, Herlev, Denmark) as an index of bone resorption (see Bagger, Y. Z. et al, J. Bone. Miner. Res. 14 (suppl. 1), S370).

[4] = Plasma incubations (human plasma stability); format: in vitro ADME; conditions: 37° C. Note: tested at 25 µM.
Protocol: Aliquots were removed at 2 and 60 minutes and quenched with an equal volume of cold acetonitrile. After mixing vigorously, the precipitated protein matter was removed by filtration (Multiscreen Solvinert filter plates, Millipore, Bedford, Mass., USA) and the filtrate analysed by reverse phase HPLC with mass spectrometric detection, using single ion monitoring of the [M+H]^+ species. Metabolic turnover was determined by comparison of peak areas from the ion chromatograms of the parent compound at 2 and 60 minutes and expressed as percent remaining at 1 hour.

[5] = system: human osteoclasts; conditions: human osteoclast, literature value; cited from earlier work
[6] = UV method, literature value; cited from earlier work

SMILES	logD at 1 h [1]	LogD pH 7.4 ([1]; pH 7.4)	Ki [2]	inhibition at 1 µM [3]	Human Plasma Stability % rem. @ 1 h [4]	Cell-based % Inh. @ 1 □ M Human (Lit.) [5]	LogD pH 7.4 (Lit.) [6]
CCCN1CCC(c2ccc(C(=O)N[C@@H](CC(C)(C)C)C(=O)N3C[C@@H](OC)[C@H]4OCC(=O)[C@H]43)cc2)CC1 [Example 38, N—((S)-1-((3aS,6R,6aS)-6-methoxy-3-oxodihydro-2H-furo[3,2-b]pyrrol-4(5H,6H,6aH)-yl)-4,4-dimethyl-1-oxopentan-2-yl)-4-(1-propylpiperidin-4-yl)benzamide]	> 0.8	1.12	8.2 nM	63 to 88%	99%	–	–
CC(C)C[C@H](NC(=O)c1ccc(C(C)(C)C)cc1)C(=O)N1CC[C@H]2OCC(=O)[C@H]21 [reference compound]	1.36	–	–	–	75%	Lit. 60%	–
CC(C)C[C@H](NC(=O)c1ccc(N2CCN(C)CC2)cc1)C(=O)N1CC[C@H]2OCC(=O)[C@H]21 [reference compound]	0.56	–	8.7 nM	–	95%	–	0.04
